Data as given in ChEMBL document CHEMBL1135098, “Design, synthesis and evaluation of substituted phenylpropanoic acid derivatives as peroxisome proliferator-activated receptor (PPAR) activators: novel human PPARalpha-selective activators” (Bioorg Med Chem Lett, 2002).

What was measured:
[1] = biological target: T1, Peroxisome proliferator-activated receptor gamma (Homo sapiens, UniProt P37231); test: […] of human Peroxisome proliferator activated receptor gamma in CHO-K1 cells;ia means inactive at 10 uM; assay type: cell-based
T1 sequence (P37231 whole entry): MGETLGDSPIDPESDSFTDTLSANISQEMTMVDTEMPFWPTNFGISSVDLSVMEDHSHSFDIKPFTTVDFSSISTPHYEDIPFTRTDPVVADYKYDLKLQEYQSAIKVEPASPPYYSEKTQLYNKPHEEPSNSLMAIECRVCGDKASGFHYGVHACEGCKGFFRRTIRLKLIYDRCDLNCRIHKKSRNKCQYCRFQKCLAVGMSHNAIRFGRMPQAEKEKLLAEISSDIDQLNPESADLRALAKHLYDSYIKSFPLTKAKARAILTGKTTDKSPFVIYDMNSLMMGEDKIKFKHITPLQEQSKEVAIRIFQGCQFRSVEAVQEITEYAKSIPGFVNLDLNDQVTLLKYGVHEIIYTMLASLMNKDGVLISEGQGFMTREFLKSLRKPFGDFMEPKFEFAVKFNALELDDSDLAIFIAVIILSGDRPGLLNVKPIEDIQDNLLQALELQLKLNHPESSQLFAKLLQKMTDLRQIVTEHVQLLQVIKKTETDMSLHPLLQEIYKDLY

[2] = biological target: T2, Peroxisome proliferator-activated receptor alpha (Homo sapiens, UniProt Q07869); test: Concentration of compound that affords half-maximum transactivation of human Peroxisome proliferator activated receptor alpha in CHO-K1 cells was determined in vitro;ia means inactive at 10 uM; assay type: cell-based
T2 sequence (Q07869 whole entry): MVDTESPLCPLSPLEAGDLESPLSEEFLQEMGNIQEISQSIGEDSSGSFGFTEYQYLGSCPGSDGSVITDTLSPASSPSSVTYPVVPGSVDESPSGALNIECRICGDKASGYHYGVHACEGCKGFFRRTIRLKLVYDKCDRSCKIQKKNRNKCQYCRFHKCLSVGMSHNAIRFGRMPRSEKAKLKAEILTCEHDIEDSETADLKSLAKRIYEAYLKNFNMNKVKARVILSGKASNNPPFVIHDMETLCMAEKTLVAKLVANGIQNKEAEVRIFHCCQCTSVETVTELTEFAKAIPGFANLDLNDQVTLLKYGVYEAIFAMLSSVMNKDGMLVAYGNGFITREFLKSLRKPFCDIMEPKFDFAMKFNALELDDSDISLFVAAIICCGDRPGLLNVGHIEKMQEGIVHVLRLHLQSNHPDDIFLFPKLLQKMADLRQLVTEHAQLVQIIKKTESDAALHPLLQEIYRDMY

[3] = biological target: T2, Peroxisome proliferator-activated receptor alpha; test: Transactivation of human Peroxisome proliferator activated receptor alpha expressed in CHO-K1 cells; assay type: cell-based
[4] = biological target: T1, Peroxisome proliferator-activated receptor gamma
Description: Concentration of compound that affords half-maximum transactivation of human Peroxisome proliferator activated receptor gamma in CHO-K1 cells was determined in vitro

| Compound | EC50 [1] | EC50 [2] | other results |
| --- | --- | --- | --- |
| COc1ccc(CCC(=O)O)cc1C(=O)NCc1ccc(C(F)(F)F)cc1 | Not Active | – | – |
| COc1ccc(CC(Oc2ccccc2)C(=O)O)cc1C(=O)NCc1ccc(C(F)(F)F)cc1 (stereo not drawn) | Not Active | Not Active | – |
| COc1ccc(CC(OC)C(=O)O)cc1C(=O)NCc1ccc(C(F)(F)F)cc1 (stereo not drawn) | Not Active | – | – |
| COc1ccc(C(=O)O)cc1C(=O)NCc1ccc(C(F)(F)F)cc1 | Not Active | Not Active | – |
| COc1ccc(CC(C(=O)O)C(C)C)cc1C(=O)NCc1ccc(C(F)(F)F)cc1 (stereo not drawn) | Not Active | – | – |
| COc1ccc(CC(C)C(=O)O)cc1C(=O)NCc1ccc(C(F)(F)F)cc1 (stereo not drawn) | Not Active | – | – |
| COc1ccc(CC(=O)O)cc1C(=O)NCc1ccc(C(F)(F)F)cc1 | Not Active | Not Active | – |
| COc1ccc(CCCC(=O)O)cc1C(=O)NCc1ccc(C(F)(F)F)cc1 | – | – | EC50 [3]: 2200 nM; EC50 [4]: 3 µM |
| COc1ccc(CC(C)(C)C(=O)O)cc1C(=O)NCc1ccc(C(F)(F)F)cc1 | Not Active | – | – |
| CCCC(Cc1ccc(OC)c(C(=O)NCc2ccc(C(F)(F)F)cc2)c1)C(=O)O (stereo not drawn) | Not Active | – | – |
| CCC(CC)(Cc1ccc(OC)c(C(=O)NCc2ccc(C(F)(F)F)cc2)c1)C(=O)O | Not Active | – | – |
| COc1ccc(CC(C(=O)O)c2ccccc2)cc1C(=O)NCc1ccc(C(F)(F)F)cc1 (stereo not drawn) | Not Active | Not Active | – |
| CC(C)(Oc1ccc(CCNC(=O)c2ccc(Cl)cc2)cc1)C(=O)O [BEZAFIBRATE] | – | – | EC50 [4]: > 137 µM |
